Data set [1] deals with Snake Venom PhosphoDiEsterase, SVPDE (Phosphodiesterase I Type II).
A further data set concerns snake phosphodiesterase. Put plainly: Cleavage of oligo 6 by snake phosphodiesterase (Boehringer Mannheim), monitored by CGE. In kind it is in vitro ADME, crotalus durissus. As to conditions: 0.5 μl enzyme in water (total volume 25 μl). As to the method: Examples 13-22 describe cleavage of the Oligos 1-7. All cleavage experiments were performed at room temperature. The concentrations of the nucleases were reduced to slow down the rates of cleavage for the homoploymers. See S. Agrawal, in Delivery Strategies for Antisense Oligonucleotide Therapeutics, 275, 462-473, Ed. S. Akhtar, CAC Press, 1995. The Capillary Gel Electrophoresis equipment used for the studies were the Beckmman PAC/E 2200 system with Beckman Coulter E-CAP DNA capillary (#477477, […], 65 cm [27 cm effective length] loaded with Beckman Coulter E-CAP ssDNA 100-R gel and run using the Tris-Borate-Urea buffer prepared according to Beckman procedures. The CGE running conditions were as follows. The injection was done for 2 seconds at 10 kV followed by electro-osmotic flow with buffer for 30-60 min as needed at 10 kV. The cleavage reactions were monitored in most cases after 1, 2, 4, 5, 7, 10, 12, 15, 17 and 20 hrs. Some reactions were monitored after 5, 10 minutes and others after 72 and 100 hrs. The SVPDE is obtained from two different species of snakes, crotalus adamanteus and crotalus durissus. It has been observed that there is no variation in the cleavage experiments as a result of this change. […]

Take “([cytarabine-pO]3-[2′O-methylcytidine-pO]2)3 [Oligo 2]”: in data set [1], the “full length oligo cleaved (estimated)” value is reported as “more than 50%”, the “ratio of 2′O-MeCMP to dCMP reached as the cleavage progressed” value is 5 and the “ratio of araCMP to dCMP reached as the cleavage progressed” value is recorded as 6.

Take (cytarabine-pO)15-dC [Oligo 1]: in data set [1], the “cleavage/degradation observed by CGE” value is on record as “minor cleavage”, the “oligonucleotide degraded to monomers” value is listed as approximately 20%, the “oligonucleotide degraded to oligomers of smaller lengths” value is on record as approximately 50% and the “ratio of araCMP to dCMP reached as the cleavage progressed” value is 13. For the same substance, the “ratio of araCMP to dCMP, starting value as the cleavage progressed” value in data set [1] is 3.

In the case of “[2′O-methylcytarabine-pO] 15-dC [Oligo 5]”, the oligonucleotide degraded result in data set [1] was “more than 80%”.

Regarding “[dC-pO] 14-dC-OH [Oligo 6, reference compound]”, the digestion entry in data set [1] is recorded as “more than 90%”. Further, the “cleavage/degradation observed by CGE” value with snake phosphodiesterase (after 30 minutes) is “a series of shorter oligomers due to partial cleavage was observed”; in the data set with snake phosphodiesterase (after 2 hours), “no full length oligonucleotide was observed”.

Regarding “polycylidilic acid [Oligo 7, reference compound]”, the digestion result in data set [1] was “more than 90%”.

Source of the values: patent US20070179112A1, “POLYMERIC NUCLEOSIDE PRODRUGS” (Reliable Biopharmaceutical, Inc., priority 2000, published 2007).
